Each compound was assayed on Vaccinia virus (assay: Antiviral activity against J2R gene deficient Vaccinia virus harboring VVTK::luc infected in HFF assessed as reduction of plaque formation after 3 days). Conditions: Orthopoxvirus vaccinia, 72 h.
Type: functional, organism-based

| SMILES | EC50 |
| --- | --- |
| O=c1[nH]c(=O)n([C@H]2C[C@H](O)[C@@H](CO)S2)cc1I | 0.3 µM |
| Nc1ccn(C[C@@H](CO)OCP(=O)(O)O)c(=O)n1.O.O [CIDOFOVIR] | 9.4 µM |
| O=c1[nH]c(=O)n([C@H]2C[C@H](O)[C@@H](CO)O2)cc1I [IDOXURIDINE] | 7.1 µM |

From ChEMBL document CHEMBL1629620 (Antimicrob Agents Chemother, 2009)
